Here are results for 6 compounds from patent US20240300886A1, “ARYLCYCLOHEXYLAMINE DERIVATIVES AND THEIR USE IN THE TREATMENT OF PSYCHIATRIC DISORDERS” (GILGAMESH PHARMACEUTICALS, INC., priority 2021, published 2024).

A short description of data set [1]: Metabolic stability in mouse liver microsomes (MLM). The data set is classed as in vitro ADME, CD-1 mice. The conditions noted are these: male, CD-1, mouse, pooled mouse liver microsomes, pH 7.4, 1 μM compound, 0.50 mg protein/mL, NADPH. The protocol:
(§1) MLM Stability. Pooled MLM from male CD-1 mice (XenoTech M1000) were used. Microsomal incubations were carried out in multi-well plates. Liver microsomal incubation medium consisted of PBS (100 mM, pH 7.4), MgCl2 (1 mM), and NADPH (1 mM), with 0.50 mg of liver microsomal protein per mL. Control incubations were performed by replacing the NADPH-cofactor system with PBS. Test compounds (1 μM, final solvent concentration 1.0%) were incubated with microsomes at 37° C. with constant shaking. Six time points over 60 minutes were analyzed, with 60 μL aliquots of the reaction mixture being drawn at each time point. The reaction aliquots were stopped by adding 180 μL of cold (4° C.) acetonitrile containing 200 ng/mL tolbutamide and 200 ng/mL labetalol as internal standards (IS), followed by shaking for 10 minutes, and then protein sedimentation by centrifugation at 4,000 rpm for 20 minutes at 4° C. Supernatant samples (80 μL) were diluted with water (240 μL) and analyzed for parent compound remaining using a fit-for-purpose liquid chromatography-tandem mass spectrometry (LC-MS/MS) method.
Data Analysis. The elimination constant (kel), half-life (t1/2) and intrinsic clearance (Clint) were determined in a plot of ln(AUC) versus […], using linear regression analysis.
(Microsomes from liver hold many membrane-bound enzymes, among them those of drug oxidation.)

Data set [2] is described as follows: Metabolic stability in dog liver microsomes (DLM). Format: in vitro ADME, beagle dogs. Conditions: for half-life at 1 μM / microsomal CLint at 1 μM: male, beagle, dog, pooled dog liver microsomes, pH 7.4, 1 μM compound, 0.50 mg protein/mL, NADPH. The protocol:
as §1, with “DLM” for “MLM”, “beagle dogs” for “CD-1 mice”, “D1000)” for “M1000)”, “([…]),” for “(IS),”
(§2) Data Analysis. The elimination constant (kel), half-life (t1/2) and intrinsic clearance (Clint) were determined in a plot of […] versus time, using linear regression analysis.

Data set [3] in a line: Metabolic stability in Gottingen minipig liver microsomes (MPLM). Conditions: pooled minipig liver microsomes, pH 7.4, 1 μM compound, 0.50 mg protein/mL, NADPH. Format: in vitro ADME, Gottingen minipigs. The protocol:
as §1, with “MPLM” for “MLM”, “Gottingen minipigs (Xenotech Z6000)” for “male CD-1 mice (XenoTech M1000)”, “mM” for “mM,”
as §2

Data set [4] in a line: Metabolic stability in rat liver microsomes (RLM). The data set is classed as in vitro ADME, Sprague Dawley rats. The conditions noted are these: male, Sprague Dawley, rat, pooled rat liver microsomes, pH 7.4, 1 μM compound, 0.50 mg protein/mL, NADPH. The protocol: as §1, with “RLM” for “MLM”, “Sprague Dawley rats” for “CD-1 mice”, “R1000)” for “M1000)”
as §2

Data set [5] in a line: Metabolic stability in human liver microsomes (HLM). The conditions noted are these: 0.50 mg protein/mL, NADPH; for Clint: 1 μM compound; for half-life at 1 μM: both sexes, human, pooled human liver microsomes, pH 7.4, 1 μM compound. The data set is classed as in vitro ADME. The protocol: HLM Stability. Pooled HLM from adult male and female donors (Corning 452117) were used. Microsomal incubations were carried out in multi-well plates. Liver microsomal incubation medium consisted of PBS (100 mM, pH 7.4), MgCl2 (1 mM), and NADPH ([…]), with 0.50 mg of liver microsomal protein per mL. Control incubations were performed by replacing the NADPH-cofactor system with PBS. Test compounds (1 μM, final solvent concentration 1.0%) were incubated with microsomes at 37° C. with constant shaking, Six time points over 60 minutes were analyzed, with 60 μL aliquots of the reaction mixture being drawn at each time point. The reaction aliquots were stopped by adding 180 μL of cold (4° C.) acetonitrile containing 200 ng/mL tolbutamide and 200 ng/mL labetalol as internal standards (IS), followed by shaking for 10 minutes, and then protein sedimentation by centrifugation at 4,000 rpm for 20 minutes at 4° C. Supernatant samples (80 μL) were diluted with water (240 μL) and analyzed for parent compound remaining using a fit-for-purpose liquid chromatography-tandem mass spectrometry (LC-MS/MS) method.
as §2

The structures appear in SMILES notation.

What is called half-life is how long it takes for the measured level to halve. In general, microsomal CLint refers to the rate of metabolic loss divided by the concentration. Read a high microsomal CLint as rapid turnover. Turning to `N[C@]1(c2cccc(F)c2)CCCCC1=O` [Compound 3S], the half-life at 1 μM in data set [1] was 2.05 h; in data set [2], 0.862 h; in data set [3] it was more than 2.42 h; in data set [4] it was 1.58 h; in data set [5], more than 2.42 h. Further, the microsomal CLint at 1 μM in data set [1] is 11.3 µL/min/mg; in data set [2], 26.8 µL/min/mg; in data set [3] it was less than 9.6 µL/min/mg; in data set [4], 14.6 µL/min/mg. In data set [5], this compound registered a Clint of less than 9.6 μL/min/m.
In the case of `N[C@]1(c2ccc(F)cc2)CCCCC1=O` [Compound 1S, (S)-2-amino-2-(4-fluorophenyl)cyclohexan-1-one], the half-life at 1 μM in data set [1], in data set [2], in data set [3], in data set [4] and in data set [5] was more than 2.42 h throughout. In addition, the intrinsic metabolic clearance (microsomal CLint) at 1 μM in data set [1], in data set [2], in data set [3] and in data set [4] was less than 9.6 µL/min/mg each time. This compound displayed a Clint in data set [5] of less than 9.6 μL/min/m.
Consider `CN[C@]1(c2ccc(F)cc2)CCCCC1=O` [Compound 2S, (S)-2-(4-fluorophenyl)-2-(methylamino)cyclohexan-1-one], for which the half-life at 1 μM in data set [1] is 1.79 h; in data set [2] it was 0.303 h; in data set [3], 0.515 h; in data set [4], 1.01 h; in data set [5] it was more than 2.42 h. The intrinsic metabolic clearance (microsomal CLint) at 1 μM in data set [1] was determined as 12.9 µL/min/mg; in data set [2], 76 µL/min/mg; in data set [3], 44.9 µL/min/mg; in data set [4], 22.8 µL/min/mg. In data set [5], this compound came in with a Clint of less than 9.6 μL/min/m.
Regarding `CN[C@@]1(c2ccc(F)cc2)CCCCC1=O` [Compound 2R, (R)-2-(4-fluorophenyl)-2(methylamino)cyclohexan-1-one], the half-life at 1 μM is 2.12 h in data set [1]; 0.645 h in data set [2]; 0.633 h in data set [3]; 1.3 h in data set [4]; more than 2.42 h in data set [5]. Moreover, the microsomal CLint at 1 μM in data set [1] stood at 10.9 µL/min/mg; in data set [2] it was 35.8 µL/min/mg; in data set [3], 36.5 µL/min/mg; in data set [4], 17.8 µL/min/mg. In data set [2], the “stability in DLM (in words)” value was “substantially more stable”. Moreover, the Clint in data set [5] is less than 9.6 μL/min/m.
For `CNC1(c2ccccc2Cl)CCCCC1=O` (racemic) [racemic ketamine, ketamine], the half-life at 1 μM turned out to be 0.257 h in data set [1]; 0.04 h in data set [2]; 0.107 h in data set [3]; 0.0933 h in data set [4]; 0.907 h in data set [5]. In addition, the microsomal CLint at 1 μM in data set [1] was found to be 90.1 µL/min/mg; in data set [2], 589 µL/min/mg; in data set [3] it was 218 µL/min/mg; in data set [4] it was 294 µL/min/mg. In data set [5], the Clint is given as 25.5 μL/min/m.
Regarding `N[C@@]1(c2ccc(F)cc2)CCCCC1=O` [Compound 1R, (R)-2-amino-2-(4-fluorophenyl)cyclohexan-1-one], the half-life at 1 μM in data set [1], in data set [4] and in data set [5] was more than 2.42 h each time. Also, the microsomal CLint at 1 μM in data set [1] and in data set [4] was less than 9.6 µL/min/mg throughout. Also, the Clint in data set [5] was less than 9.6 μL/min/m.
